What all share (type): in vivo, souris
In assay [1] the test system is leucémie L1210. Nature of the assay: Therapeutic effect on L1210 leukemia in mice, single intraperitoneal injection 24 h after intraperitoneal tumour inoculation. Particulars: for Augmentation survie traitées/contrôle x 100 / Survie moyenne en jours des souris traitées ± erreur standard. / % de cellules tumorales tuées par le traitement: single i.p. injection, inoculum 10^5 L1210 cells; for % de cellules tumorales tuées par le traitement: calculated by Skipper method; for Nombre d'animaux guéris: cured = survival more than 45 days after inoculation; for index chimiothérapeutique: leucémie L1210, read from Table VI; for fraction des cellules survivantes N/No après traitement en fonction de la dose (fraction de la dose infra-létale DLo): figure 2, comparison with dérivé 34 (DIE). From the text: Afin de tester l'activité antitumorale des composés décrits plus haut, on a utilisé en premier lieu des leucémies murines P388 et L1210. La leucémie P388 est considérée comme très sensible et permet une première sélection. La leucémie L1210 est plus résistante et plus sélective. Une substance ayant une grande activité sur la leucémie L1210 a une grande chance d'être active en clinique humaine (J.M. VENDITTI, Relevance of transplantable animal tumor systems to the Selection of new agents for clinical trial in pharmacologi- cal basis of cancer chemotherapy. The University of Texas ed. Williams and Wilkins, publ. 1975, Baltimore USA) .
D'autre part, la tumeur expérimentale qu'est la leucémie L1210 de la souris est en effet couramment utilisée pour l'évaluation de tous les composés antitumoraux actuellement mis en oeuvre en thérapeutique humaine, ainsi qu'il est décrit, par exemple par C.C. ZUBROD dans Proc. Nat. Acad. Sci. USA 69, 1972, p 1042-1047. Le système tumoral ainsi constitué expérimentalement permet une évaluation quantitative très précise de l'activité du composé testé, et, par conséquent aussi, une comparaison objective entre les activités respectives de différents composés, par exemple selon les méthodes décrites par R.E. SKIPPER, F.M. SCHABEL Jr. et W.S. WILCOX dans Cancer Chemother. Rep., 35, 1964, p 1-111 et 45, 1965, p 5-28.
(§1) En pratique, on a utilisé des souris ayant reçu par voie intrapéritonéale un inoculum de cellules de leucémie L1210 et ayant été, pour la moitié d'entre elles, soumises 24 heures après ladite inoculation tumorale à une injection intrapéritonéale d'une dose unique de l'un des composés à tester : l'autre moitié des souris a reçu une injection d'un volume identique d'un solvant inactif et servait de série témoin. On a réparti les souris au hasard dans chaque série expérimentale. Une première expérimentation de routine a permis de déterminer la mortalité par toxicité et de fixer ainsi les doses infra-létales.
Conformément à la convention en usage dans ce domaine, on considérait comme guéris les animaux qui survivaient plus de 45 jours après l'inoculation de cellules tumorales.
On a ainsi pu déterminer la mortalité par toxicité sous l'effet d'une injection unique de l'un des composés à différentes doses (doses infra-létales, DL 50 et DL 100) et évaluer le taux de survie du groupe d'animaux auxquels on n'avait injecté qu'une dose infra-létale d'un composé selon l'invention.
On a calculé le taux de survie à partir d'une analyse statistique des résultats expérimentaux, par comparaison avec les résultats obtenus avec la série témoin, selon les méthodes bien connues de Mann-Whitey et de Wilcoxon; le pourcentage de cellules leucémiques tuées par le traitement réalisé était calculé par la méthode décrite par H.E. SKIPPER et coll. dans les articles cités plus haut, en prenant pour base, suivant le cas, soit l'augmentation de la survie moyenne en l'absence de survivants, soit le pourcentage de survivants.
Pour l'évaluation de l'activité thérapeutique des composés selon l'invention, on a exprimé les doses dudit composé en les rapportant à la dose infra-létale […], que l'on a posée égale à 1. Cette dose infra-létale s'est en effet avérée plus facile à déterminer pour les composés de l'invention que la DL 10, dont elle est d'ailleurs très voisine et qui est habituellement prise comme référence pour l'évaluation de l'activité thérapeutique de composés à effet antitumoral (voir H.E. SKIPPER et coll., ouvrages cités).

In assay [2] the test system is tumeur de Lewis. Nature of the assay: Survival of mice bearing Lewis tumour, identical protocol. Particulars: same doses.
Source text: as §1
(§2) En outre, ces composés présentent une forte activité sur le mélanome B 16 et la tumeur de Lewis, pour les mêmes doses, le protocole étant identique. A titre d'exemple, sur le mélanome B 16, le dérivé 41 augmente de 15 jours la survie des souris traitées; sur la tumeur de Lewis, l'augmentation de survie induite pour ce même dérivé est de 8 jours avec un survivant.

Assay [3] concerns mélanome B 16. Nature of the assay: Survival of mice bearing B 16 melanoma, identical protocol. Particulars: same doses.
Source text: as §1, §2

Where [4] appears, read: dose 0.02 of the infra-lethal dose.
The mark [5] stands for this setting: dose 0.1 of the infra-lethal dose.
Setting [6] is: dose 0.2 of the infra-lethal dose.
Where [7] appears, read: dose 0.25 of the infra-lethal dose.
The mark [8] stands for this setting: dose 0.3 of the infra-lethal dose.
Where [9] appears, read: dose 0.4 of the infra-lethal dose.
Where [10] appears, read: dose 1/5 of the infra-lethal dose.
The mark [11] stands for this setting: dose 0.04 of the infra-lethal dose.
Setting [12] is: dose 0.8 of the infra-lethal dose.

Structures are written as SMILES.

As for `COc1ccc2[nH]c3ccc4cc[n+](CCN5CCC(C6CCN(CC[n+]7ccc8ccc9[nH]c%10ccc(OC)cc%10c9c8c7)CC6)CC5)cc4c3c2c1` [Dérivé 34, Dichlorurede 1'1'-bis 2-(2-méthoxy-10,7-H-pyrido[4,3-c]carbazolium)éthy14,4' bispipéridine], the “Augmentation survie traitées/contrôle x 100” value stood at 128 in assay [1] (setting [4]); 137 in assay [1] (setting [5]); 144 in assay [1] (setting [6]); 216 in assay [1] (setting [7]); 191 in assay [1] (setting [8]); 182 in assay [1] (setting [9]). Further, the “Survie moyenne en jours des souris traitées ± erreur standard.” value came out at 12.2 ± 0.9 jours in assay [1] (setting [4]); 13.6 ± 2.9 jours in assay [1] (setting [5]); 14.3 ± 2.6 jours in assay [1] (setting [6]); 18.6 ± 4.5 jours in assay [1] (setting [7]); 17.6 ± 4.5 jours in assay [1] (setting [8]); 18.1 ± 4.5 jours in assay [1] (setting [9]). Besides, the “% de cellules tumorales tuées par le traitement” value was 98% in assay [1] (setting [4]); 94.8% in assay [1] (setting [5]); 99.97% in assay [1] (setting [6]); 99.999% in assay [1] (setting [7]); 99.999% in assay [1] (setting [8]); 99.999% in assay [1] (setting [9]). The “Nombre d'animaux guéris” value in assay [1] (setting [5]) is recorded as 1/15. The “% des cellules leucémiques tuées” value in assay [1] (setting [10]) was 99,97%. The “index chimiothérapeutique” value in assay [1] is recorded as “extrêmement élevé”.
`Oc1ccc2[nH]c3ccc4cc[n+](CCN5CCC(C6CCN(CC[n+]7ccc8ccc9[nH]c%10ccc(O)cc%10c9c8c7)CC6)CC5)cc4c3c2c1` [Dérivé 40]: the “Augmentation survie traitées/contrôle x 100” value in assay [1] (setting [4]) amounted to 111; in assay [1] (setting [6]), 153; in assay [1] (setting [9]) it was 167. The “Survie moyenne en jours des souris traitées ± erreur standard.” value in assay [1] (setting [4]) was 9.4 ± 1.2 jours; in assay [1] (setting [6]), 12.9 ± 1.5 jours; in assay [1] (setting [9]) it was 13.2 ± 1.9 jours. For the same compound, the “% de cellules tumorales tuées par le traitement” value in assay [1] (setting [4]) is reported as 94%; in assay [1] (setting [6]) it was 99.47%; in assay [1] (setting [9]) it was 99.994%. Besides, the “% des cellules leucémiques tuées” value in assay [1] (setting [10]) is 99,97%. Moreover, the “index chimiothérapeutique” value in assay [1] is “extrêmement élevé”.
On to `COc1ccc2c(c1)c1c3c[n+](CCN4CCC(C5CCN(CC[n+]6ccc7ccc8c(c7c6)c6cc(OC)ccc6n8C)CC5)CC4)ccc3ccc1n2C` [Dérivé 41, Dichlorurede 1,1' bis 2-(2-méthyl-7-méthoxy-10,7-H-pyrido [4,3-c]carbazolium) éthyl 4,4' bispipéridine], for which, in assay [1] (setting [11]), the “Augmentation survie traitées/contrôle x 100” value came out at 143, the “Survie moyenne en jours des souris traitées ± erreur standard.” value is on record as 11.9 ± 1.2 jours and the “% de cellules tumorales tuées par le traitement” value is given as 99.8%. In assay [1] (setting [9]), the “Nombre d'animaux guéris” value was 1/15, the “Augmentation survie traitées/contrôle x 100” value was 140, the “Survie moyenne en jours des souris traitées ± erreur standard.” value stood at 11.8 ± 0.9 jours and the “% de cellules tumorales tuées par le traitement” value is recorded as 99.8%. Also, in assay [1] (setting [12]), the “Augmentation survie traitées/contrôle x 100” value turned out to be 155, the “Survie moyenne en jours des souris traitées ± erreur standard.” value was 12.9 ± 1.9 jours and the “% de cellules tumorales tuées par le traitement” value is 99.97%. Besides, the “% des cellules leucémiques tuées” value in assay [1] (dose 1/15 of the infra-lethal dose) is recorded as 91,8%. Moreover, in assay [1], the “index chimiothérapeutique” value is listed as “extrêmement élevé”. Moreover, in assay [2], the augmentation de survie is reported as 8 jours and the survivant result was “un survivant”. In assay [3], the “augmentation de la survie des souris traitées” value is given as 15 jours.
In the case of `O=NN(CCCl)C(=O)NCCCl` [bischloréthylnitrosourée (BCNU), bischloréthylnitrosourée, reference compound], in assay [1], the “fraction des cellules survivantes N/No après traitement en fonction de la dose (fraction de la dose infra-létale DLo)” value is on record as “ne sont actives qu'à des doses bien supérieures à celles du dérivé 34”.
The same measure, in the same setting: then `O=P1(N(CCCl)CCCl)NCCCO1` (stereo not shown) [cyclophosphamide, reference compound], with “ne sont actives qu'à des doses bien supérieures à celles du dérivé 34”.

Values taken from patent publication EP0008556A1, “Bis 7H pyridocarbazole derivatives and pharmaceutical compositions containing them” (ANVAR Agence Nationale de Valorisation de la Recherche, priority 1978, dated 1980).
